Experiments:
[1] = target: T1, Glycogen Phosphorylase (rabbit muscle) (Oryctolagus cuniculus, UniProt P00489); test: Glycogen phosphorylase selectivity assay; assay type: biochemical; settings: for EC50: Table 3 Selectivity, read-out: Glycogen Phosphorylase (act.); for effect on glycogen phosphorylase: result in words
T1 construct: Enzyme (rabbit muscle) was purchased from Sigma; purchased Sigma; host or cells: rabbit muscle
T1 sequence (P00489 2-843 limits assumed): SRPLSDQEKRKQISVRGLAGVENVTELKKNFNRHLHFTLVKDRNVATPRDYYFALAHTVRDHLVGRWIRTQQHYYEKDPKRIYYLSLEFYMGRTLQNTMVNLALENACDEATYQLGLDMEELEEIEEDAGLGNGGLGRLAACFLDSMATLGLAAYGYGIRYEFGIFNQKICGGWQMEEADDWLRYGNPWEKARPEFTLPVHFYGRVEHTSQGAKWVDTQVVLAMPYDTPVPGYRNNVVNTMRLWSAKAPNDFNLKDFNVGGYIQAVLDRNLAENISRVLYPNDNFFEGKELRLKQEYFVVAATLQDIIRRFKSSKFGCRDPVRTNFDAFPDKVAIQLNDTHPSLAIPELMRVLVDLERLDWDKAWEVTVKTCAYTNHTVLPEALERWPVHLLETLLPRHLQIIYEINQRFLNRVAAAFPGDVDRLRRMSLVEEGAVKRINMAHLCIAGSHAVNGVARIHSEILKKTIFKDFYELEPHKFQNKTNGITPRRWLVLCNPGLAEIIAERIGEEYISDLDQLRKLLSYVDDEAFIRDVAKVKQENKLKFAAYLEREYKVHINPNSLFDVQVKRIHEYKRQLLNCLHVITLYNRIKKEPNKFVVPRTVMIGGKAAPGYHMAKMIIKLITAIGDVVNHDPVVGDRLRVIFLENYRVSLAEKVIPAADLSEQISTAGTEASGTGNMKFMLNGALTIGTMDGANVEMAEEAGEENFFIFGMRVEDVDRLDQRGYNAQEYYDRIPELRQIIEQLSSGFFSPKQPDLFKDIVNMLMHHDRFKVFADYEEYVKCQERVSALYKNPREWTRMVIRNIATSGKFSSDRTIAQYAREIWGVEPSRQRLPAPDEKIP
Experimental: (§1) To determine the selectivity of compounds towards FBPase, effects of FBPase inhibitors on 5 key AMP binding enzymes were measured using the assays described below:
Glycogen Phosphorylase: Enzyme (rabbit muscle) was purchased from Sigma. Activity was measured at 37° C. in reactions in which the formation of glucose 1-phosphate was coupled to the reduction of NADP via phosphoglucomutase and glucose 6-phosphate dehydrogenase. Assays were performed on 96-well microtitre plates and were read at 340 nm on a Molecular Devices Microplate Reader. Reaction mixtures consisted of 20 mM imidazole, pH 7.4, 20 mM MgCl2, 150 mM potassium acetate, 5 mM potassium phosphate, 1 mM DTT, 1 mg/ml BSA, 0.1 mM NADP, 1 unit/mL phosphoglucomutase, 1 unit/mL glucose 6-phosphate dehydrogenase, 0.5% glycogen. Test compound concentrations ranged from 1 to 500 μM. Reactions were started by the addition of 17 μg enzyme and were monitored for 20 minutes.

Human adenosine kinase = target: T2, Human adenosine kinase (Homo sapiens, UniProt P55263); test: Adenosine kinase selectivity assay; assay type: biochemical; settings: for IC50: Table 3 Selectivity, read-out: Adenosine Kinase (inh.); for effect on adenosine kinase: result in words
T2 construct: made in house; host or cells: E. coli
Experimental: as §1
Adenosine Kinase: Human adenosine kinase was purified from an E. coli expression system as described by Spychala et al (Spychala, J., Datta, N. S., Takabayashi, K., Datta, M., Fox, I. H., Gribbin, T., and Mitchell, B. S. (1996) Proc. Natl. Acad. Sci. USA 93, 1232-1237). Activity was measured essentially as described by Yamada et at (Yamada, Y., Goto, H., Ogasawara, N. (1988) Biochim. Biophys. Acta 660, 36-43.) with a few minor modifications. Assay mixtures contained 50 mM TRIS-maleate buffer, pH 7.0, 0.1% BSA, 1 mM ATP 1 mM MgCl2, 1.0 μM [U-^14C] adenosine (400-600 mCi/mmol) and varying duplicate concentrations of inhibitor. ^14C-AMP was separated from unreacted ^14C-adenosine by absorption to anion exchange paper (Whatman) and quantified by scintillation counting.

rat hepatocytes = test: Inhibition of gluconeogenesis in rat hepatocytes; assay type: cell-based; settings: for IC50: Hepatocyte, glucose production from lactate/pyruvate, isolated rat hepatocytes, 1 hour; for inhibition of glucose production in rat hepatocytes (FIG. 4): result in words
Experimental: Hepatocytes were prepared from overnight fasted Sprague-Dawley rats (250-300 g) according to the procedure of Berry and Friend (Berry, M. N., Friend, D. S., 1969, J. Cell. Biol. 43, 506-520) as modified by Groen (Groen, A. K., Sips, H. J., Vervoorn, R. C., Tager, J. M., 1982, Eur. J. Biochem. 122, 87-93). Hepatocytes (75 mg wet weight/mL) were incubated in 1 ml Krebs-bicarbonate buffer containing 10 mM Lactate, 1 mM pyruvate, 1 mg/mL BSA, and test compound concentrations from 1 to 500 μM. Incubations were carried out in a 95% oxygen, 5% carbon dioxide atmosphere in closed, 50-mL Falcon tubes submerged in a rapidly shaking water bath (37° C.). After 1 hour, an aliquot (0.25 mL) was removed, transferred to an Eppendorf tube and centrifuged. 50 μL of supernatant was then assayed for glucose content using a Sigma Glucose Oxidase kit as per the manufacturer's instructions.

[2] = target: T3, Adenylate Kinase (rabbit muscle) (Oryctolagus cuniculus, UniProt P00569); test: Adenylate kinase selectivity assay; assay type: biochemical; settings: for IC50: Table 3 Selectivity, read-out: Adenylate Kinase (inh.); for effect on adenylate kinase: result in words
T3 construct: Enzyme (rabbit muscle) was purchase from Sigma; purchased Sigma; host or cells: rabbit muscle
T3 sequence (P00569 1-194): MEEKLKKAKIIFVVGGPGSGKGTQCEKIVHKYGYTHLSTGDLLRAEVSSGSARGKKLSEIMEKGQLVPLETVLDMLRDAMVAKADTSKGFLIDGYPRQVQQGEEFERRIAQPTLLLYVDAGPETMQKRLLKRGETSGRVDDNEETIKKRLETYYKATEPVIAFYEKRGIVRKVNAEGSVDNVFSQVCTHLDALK
Experimental: as §1
Adenylate Kinase: Enzyme (rabbit muscle) was purchase from Sigma. Activity was measured at 37° C. in reaction mixtures (100 μL) containing 100 mM Hepes, pH 7.4, 45 mM MgCl2, 1 mM EGTA, 100 mM KCl, 2 mg/ml BSA, 1 mM AMP and 2 mM ATP. Reactions were started by addition of 4.4 ng enzyme and terminated after 5 minutes by addition of 17 μL perchloric acid. Precipitated protein was removed by centrifugation and the supernatant neutralized by addition of 33 μL 3 M KOH/3 M KH2CO3. The neutralized solution was clarified by centrifugation and filtration and analyzed for ADP content (enzyme activity) by HPLC using a YMC ODS AQ column (25×4.6 cm). A gradient was run from 0.1 M KH2PO4, pH 6, 8 mM tetrabutyl ammonium hydrogen sulfate to 75% acetonitrile. Absorbance was monitored at 254 nm.

T2 sequence (P55263 1-345 isoform P55263-2): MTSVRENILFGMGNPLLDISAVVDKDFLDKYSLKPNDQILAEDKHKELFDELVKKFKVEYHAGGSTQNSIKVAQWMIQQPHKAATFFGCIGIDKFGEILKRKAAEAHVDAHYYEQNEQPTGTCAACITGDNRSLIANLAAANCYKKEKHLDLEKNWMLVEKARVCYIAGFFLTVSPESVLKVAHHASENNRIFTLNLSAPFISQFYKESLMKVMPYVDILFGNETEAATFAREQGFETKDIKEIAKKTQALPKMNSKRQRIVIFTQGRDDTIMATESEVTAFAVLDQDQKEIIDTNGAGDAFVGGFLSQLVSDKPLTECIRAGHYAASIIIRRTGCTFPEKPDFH

Row | SMILES | EC50 [1] [µM] | effect on glycogen phosphorylase [1] | IC50 (Human adenosine kinase) [µM] | effect on adenosine kinase (Human adenosine kinase) | IC50 (rat hepatocytes) [µM] | inhibition of glucose production in rat hepatocytes (FIG. 4) (rat hepatocytes) | melting point [°C] | IC50 [2] [µM] | effect on adenylate kinase [2] | activation of glycogen phosphorylase ([1]; concentrations of drug ranging from 5 to […])
1 | Nc1c(F)ccc2c1nc(-c1ccc(P(=O)(O)O)o1)n2CC1CC1 [Compound 12.61, 4-Amino-5-fluoro-1-cyclopropylmethyl-2-(2-phosphono-5-furanyl)benzimidazole] | > 100 | essentially without effect | > 100 | essentially without effect | 3.3 | inhibit glucose production in vitro in rat hepatocytes | 258 to 260 | > 500 | essentially without effect | 
2 | CCc1cc(F)c(N)c2nc(-c3ccc(P(=O)(O)O)o3)n(CC(C)C)c12 [Compound 12.64] | > 500 |  |  |  | 2.5 |  |  |  |  | no activation of the enzyme was observed
3 | CCn1c(-c2ccc(P(=O)(O)O)o2)nc2c(N)cccc21 [Compound 12.1, 4-Amino-1-ethyl-2-[2-(5-phosphono)furanyl]benzimidazole] | > 200 | essentially inactive | > 10 | essentially inactive | 110 | inhibit glucose production in vitro in rat hepatocytes | > 250 | > 500 | essentially inactive | 

From patent US6399782B1, “Benzimidazole inhibitors of fructose 1,6-bisphosphatase” (Metabasis Therapeutics, Inc., priority 1997, dated 2002)
